# According to US20230288411A1, “POLYPEPTIDE, MULTIMER, SOLID PHASE, MEASUREMENT METHOD FOR TEST SUBSTANCE, AND REAGENT KIT” (SYSMEX CORPORATION, priority 2020, published 2023):
# Assays:
# L-biotin-labeled albumin = assay: SPR (Biacore T200) binding evaluation to L-biotin-labeled albumin; set-up: species or system bovine; conditions: analyte flowed at 30 μL/min up to 100 nM, single cycle method, albumin immobilized on sensor chip
# Experimental: (§1) A binding ability of D-streptavidin obtained in Example 1 to D-biotin as a natural form and L-biotin as an optical isomer of D-biotin was evaluated by an intermolecular interaction analyzer (Biacore T200) using SPR as a measurement principle.
# Similarly, L-biotin-labeled albumin was prepared using L-biotin-AC5-OSu [see (Amidation of L-biotin) described in Example 3 above].
# Bovine serum albumin was immobilized on flow cells 1 and 3 of a CMS sensor chip (manufactured by Cytiva) of a Biacore T200 system at a target level of 400 RU by an amine coupling method with an amine coupling kit (Cytiva). Further, L-biotin-labeled albumin and D-biotin-labeled albumin were immobilized at a target level of 400 RU to flow cells 2 and 4, respectively, similarly by an amine coupling method. Blocking was performed in each flow cell with 1 M ethanolamine solution, pH 8.5 (manufactured by Cytiva). […]
# (§2) Using HBS-EP+(manufactured by Cytiva) as a running buffer, the prepared D-tamavidin (trademark) 2 was flowed into each flow cell at a flow rate of 30 μL/min in the range of 100 pM to 100 nM by a single cycle method, and binding and dissociation to D-biotin or L-biotin was evaluated by Biacore T200 Evaluation Software (manufactured by Cytiva).
# D-biotin-labeled albumin = assay: SPR (Biacore T200) binding evaluation to D-biotin-labeled albumin; set-up: species or system bovine; conditions: analyte flowed at 30 μL/min up to 100 nM, single cycle method, albumin immobilized on sensor chip
# Experimental: as §1
# An N,N-dimethylformamide solution (16.3 μL) containing 10 mg/mL D-biotin-AC5-OSu (manufactured by DOJINDO LABORATORIES) was added to 2.8 mL of 50 mg/mL bovine serum albumin/0.1 M phosphate buffer solution (pH 7.5), and the mixture was stirred, then allowed to stand at 35° C. for 1 hour. Thereafter, desalting was performed by PD-10 (17085101, manufactured by Cytiva) equilibrated with a 0.1 M phosphate buffer (pH 7.5), and D-biotin-labeled albumin was recovered. The number of labeled D-biotin per molecule of albumin by HABA method was 0.4.
# Bovine serum albumin was immobilized on flow cells 1 and 3 of a CMS sensor chip (manufactured by Cytiva) of a Biacore T200 system at a target level of 400 RU by an amine coupling method with an amine coupling kit (Cytiva). […]
# as §2
binding to L-biotin-labeled albumin (SPR sensorgram) (L-biotin-labeled albumin),binding to D-biotin-labeled albumin (SPR sensorgram) (D-biotin-labeled albumin),Substance
very strongly bound,not substantially bound,D-streptavidin: tetrameric polypeptide of 13th to 139th amino acids of SEQ ID NO: 1 composed of D-amino acid residues
–,very strongly bound,natural core streptavidin: commercially available tetrameric natural core streptavidin (manufactured by Roche) [reference compound]
